In this assay the target is T1, c-Met kinase (recombinant c-Met) (Homo sapiens, UniProt P08581).
T1 construct: 0.27 nM recombinant c-Met
T1 sequence (P08581 25-1390): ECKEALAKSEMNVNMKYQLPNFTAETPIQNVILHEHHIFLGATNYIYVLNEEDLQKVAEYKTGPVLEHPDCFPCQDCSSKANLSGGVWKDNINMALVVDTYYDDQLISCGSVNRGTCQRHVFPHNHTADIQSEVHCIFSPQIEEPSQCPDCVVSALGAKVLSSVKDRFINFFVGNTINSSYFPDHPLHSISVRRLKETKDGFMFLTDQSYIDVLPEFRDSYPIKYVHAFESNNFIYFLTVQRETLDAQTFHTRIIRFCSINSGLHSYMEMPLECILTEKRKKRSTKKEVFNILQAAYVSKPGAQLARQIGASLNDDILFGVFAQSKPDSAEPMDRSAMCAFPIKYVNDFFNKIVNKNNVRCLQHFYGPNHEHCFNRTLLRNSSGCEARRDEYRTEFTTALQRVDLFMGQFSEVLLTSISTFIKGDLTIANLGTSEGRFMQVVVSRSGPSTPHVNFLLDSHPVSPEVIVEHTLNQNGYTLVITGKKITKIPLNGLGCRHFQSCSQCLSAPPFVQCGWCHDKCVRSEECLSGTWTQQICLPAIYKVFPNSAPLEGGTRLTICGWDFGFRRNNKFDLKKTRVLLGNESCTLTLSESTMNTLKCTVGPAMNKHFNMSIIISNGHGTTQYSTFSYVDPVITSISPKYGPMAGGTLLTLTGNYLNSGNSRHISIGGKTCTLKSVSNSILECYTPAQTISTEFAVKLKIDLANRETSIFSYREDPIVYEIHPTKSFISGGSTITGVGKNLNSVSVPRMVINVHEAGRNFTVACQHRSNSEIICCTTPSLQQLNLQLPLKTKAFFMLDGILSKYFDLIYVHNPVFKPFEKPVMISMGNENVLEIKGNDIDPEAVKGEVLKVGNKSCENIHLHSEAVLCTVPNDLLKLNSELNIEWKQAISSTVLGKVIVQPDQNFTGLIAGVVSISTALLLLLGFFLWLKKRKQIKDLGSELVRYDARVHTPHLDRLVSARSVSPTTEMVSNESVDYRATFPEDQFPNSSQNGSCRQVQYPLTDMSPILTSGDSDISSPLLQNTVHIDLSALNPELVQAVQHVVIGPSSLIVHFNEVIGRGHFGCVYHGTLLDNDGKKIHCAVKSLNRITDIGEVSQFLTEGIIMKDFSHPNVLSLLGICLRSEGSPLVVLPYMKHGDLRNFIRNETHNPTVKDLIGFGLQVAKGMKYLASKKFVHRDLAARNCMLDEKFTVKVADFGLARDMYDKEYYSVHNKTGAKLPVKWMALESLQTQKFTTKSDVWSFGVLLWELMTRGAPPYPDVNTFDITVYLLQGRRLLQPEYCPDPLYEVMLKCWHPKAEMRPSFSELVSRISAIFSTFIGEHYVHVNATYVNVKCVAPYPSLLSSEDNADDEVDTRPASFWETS
Put plainly: In vitro kinase assay I (homogeneous time-resolved fluorescence tyrosine kinase assay). It counts as biochemical. In short, it runs like this: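 Biotinylated peptide (0.5 μM) phosphorylated by 0.2 nM recombinant c-Met with 50 μM MgATP, 60 min at room temperature, pH 7.4, 5% DMSO. EDTA stop; HTRF read with Eu-anti-phosphotyrosine antibody and streptavidin-APC. IC50 from 4-parameter logistic fit.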
On to `CC(c1cccc(-c2ncc(OCC(C)(C)O)cn2)c1)c1nn(-c2ccc(F)c(F)c2)ccc1=O` (single isomer, unassigned) [Example 250, 1-(3,4-difluorophenyl)-3-[(1R or S)-1-{3-[5-(2-hydroxy-2-methylpropoxy)pyrimidin-2-yl]phenyl}ethyl]pyridazin-4(1H)-one], for which the IC50 is less than 100 nM.

As for `COc1cnc(-c2cccc(Cc3nn(-c4ccc(OC)nc4)ccc3=O)c2)nc1` [Example 33, 1-(6-methoxypyridin-3-yl)-3-[3-(5-methoxypyrimidin-2-yl)benzyl]pyridazin-4(1H)-one], the IC50 was less than 100 nM.

As to `O=C(Nc1cccc(Cc2nn(-c3cc(F)c(F)c(F)c3)ccc2=O)c1)OCCCn1cccc1` [Example 548, 3-(1H-pyrrol-1-yl)propyl (3-{[4-oxo-1-(3,4,5-trifluorophenyl)-1,4-dihydropyridazin-3-yl]methyl}phenyl)carbamate], the IC50 is less than 100 nM.

In the case of `Cn1cc(-n2ccc(=O)c(Cc3cccc(-c4ncc(O[C@@H]5COC[C@@H]5F)cn4)c3)n2)cn1` (racemic) [Example 390, rac-3-(3-{5-[(cis-4-fluorotetra-hydrofuran-3-yl}oxy]pyrimidin-2-yl}benzyl)-1-(1-methyl-1H-pyrazol-4-yl)pyridazin-4(1H)-one], the half-maximal inhibitory concentration (IC50) was less than 100 nM.

For the compound `Cn1cc(-n2ccc(=O)c(Cc3cccc(-c4ncc(OCC(O)C(F)(F)F)cn4)c3)n2)cn1` (racemic) [Example 364, rac-1-(1-methyl-1H-pyrazol-4-yl)-3-{3-[5-(3,3,3-trifluoro-2-hydroxypropoxy)pyrimidin-2-yl]benzyl}pyridazin-4(1H)-one], the half-inhibitory concentration (IC50) was less than 100 nM.

Regarding `CCn1cc(-n2ccc(=O)c(C(C)c3cccc(-c4ncc(OCc5cc(C)no5)cn4)c3)n2)cn1` (single isomer, unassigned) [Example 301, 1-(1-ethyl-1H-pyrazol-4-yl)-3-[(1R or S)-1-(3-{5-[(3-methylisoxazol-5-yl)methoxy]pyrimidin-2-yl}phenyl)ethyl]pyridazin-4(1H)-one], the IC50 is less than 100 nM.

With `COCCOC(=O)Nc1cccc(Cc2nn(-c3cc(F)cc(C#N)c3)ccc2=O)c1` [Example 73, 2-methoxyethyl (3-{[1-(3-cyano-5-fluorophenyl)-4-oxo-1,4-dihydropyridazin-3-yl]methyl}phenyl)carbamate], the IC50 is less than 100 nM.

Turning to `Cn1cc(-n2ccc(=O)c(Cc3cccc(-c4ncc(OCC(=O)O)cn4)c3)n2)cn1` [Example 357, [2-(3-{[1-(1-Methyl-1H-pyrazol-4-yl)-4-oxo-1,4-dihydropyridazin-3-yl]methyl}phenyl)pyrimidin-5-yl]oxyacetic acid], the half-maximal inhibitory concentration (IC50) is less than 100 nM.

Consider `CCOc1cnc2ccc(C(C)c3nn(-c4cnn(CC)c4)ccc3=O)cc2c1` (single isomer, unassigned) [Example 227, 3-[(1R or S)-1-(3-ethoxyquinolin-6-yl)ethyl]-1-(1-ethyl-1H-pyrazol-4-yl)pyridazin-4(1H)-one], for which the IC50 was less than 100 nM.

For `Cn1cc(-n2ccc(=O)c(Cc3cccc(NC(=O)OCCC4(O)CCOC(C)(C)C4)c3)n2)cn1` (racemic) [Example 612, rac-2-(4-hydroxy-2,2-dimethyl-tetrahydro-2H-pyran-4-yl)ethyl (3-{[1-(1-methyl-1H-pyrazol-4-yl)-4-oxo-1,4-dihydropyridazin-3-yl]methyl}phenyl)carbamate], the IC50 was less than 100 nM.

Consider `CCCOC(=O)Nc1cccc(Cc2nn(-c3ccn(C)n3)ccc2=O)c1` [Example 27, propyl (3-{[1-(1-methyl-1H-pyrazol-3-yl)-4-oxo-1,4-dihydropyridazin-3-yl]methyl}phenyl)carbamate], for which the IC50 was 100 to 1000 nM.

Take `CC(c1cccc(-c2ncc(Br)cn2)c1)c1nn(-c2cnn(C)c2)ccc1=O` (single isomer, unassigned) [Example 241, 3-{(1S or R)-1-[3-(5-bromopyrimidin-2-yl)pheny]ethyl)}-1-(1-methyl-1H-pyrazol-4-yl)pyridazin-4(1H)-one]: the concentration for half-maximal inhibition (IC50) lay within 100 to 1000 nM.

The values are drawn from patent US20120264735A1 (priority 2009, published 2012).
